From the supplement of paper PMC10307832

Columns and labels:
Experiment in all cases: relative viability (nuclei count vs DMSO), 5 days (fraction); higher = more cells survive
ChaGo-K-1 = test system: ChaGo-K-1
Outline: (§1)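 After 5 days of treatment, lung cancer cells in 1536-well plates were fixed and stained in a single step (final 0.05% Triton X-100, 1% formaldehyde, 1 ug/ml Hoechst) and their nuclei counted on 4× images. Treatment had been applied by pin tool the day after seeding as one drug alone or as a fixed anchor-drug dose with five library-drug doses (not always all listed) in √10 steps. Relative viability is the nuclei count of treated wells divided by that of vehicle wells, and values are medians of duplicate plates.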

EMC-BAC-2 = test system: EMC-BAC-2
Outline: as §1

EPLC-272H = test system: EPLC-272H
Outline: as §1

H3255 = test system: H3255
Outline: as §1

HCC-44 = test system: HCC-44
Outline: as §1

HCC-827 = test system: HCC-827
Outline: as §1

LCLC-103H = test system: LCLC-103H
Outline: as §1

LU99A = test system: LU99A
Outline: as §1

NCI-H1395 = test system: NCI-H1395
Outline: as §1

NCI-H1651 = test system: NCI-H1651
Outline: as §1

NCI-H1793 = test system: NCI-H1793
Outline: as §1

NCI-H1944 = test system: NCI-H1944
Outline: as §1

NCI-H2085 = test system: NCI-H2085
Outline: as §1

NCI-H2087 = test system: NCI-H2087
Outline: as §1

NCI-H2405 = test system: NCI-H2405
Outline: as §1

NCI-H650 = test system: NCI-H650
Outline: as §1

NCI-H838 = test system: NCI-H838
Outline: as §1

Compound `O=c1cc(-c2cccc3c2Sc2ccccc2S3)oc(N2CCOCC2)c1` + NC(=O)Nc1cc(-c2cccc(F)c2)sc1C(=O)N[C@H]1CCCNC1 [AZD7762] (partner 0.2 µM) has a relative viability (ChaGo-K-1; first compound 0.08 µM) of 0.827, a relative viability (ChaGo-K-1; first compound 0.253 µM) of 0.942 and a relative viability (ChaGo-K-1; first compound 0.8 µM) of 0.779. For the same compound, the relative viability (ChaGo-K-1; first compound 2.53 µM) was 0.889, the relative viability (ChaGo-K-1; first compound 8 µM) was 0.975 and the relative viability (EMC-BAC-2; first compound 0.08 µM) was 1.06. It also gave a relative viability (EMC-BAC-2; first compound 0.253 µM) of 1.37, a relative viability (EMC-BAC-2; first compound 0.8 µM) of 0.952 and a relative viability (EMC-BAC-2; first compound 2.53 µM) of 1.11. It also gave a relative viability (EMC-BAC-2; first compound 8 µM) of 1.2, a relative viability (EPLC-272H; first compound 0.08 µM) of 0.19 and a relative viability (EPLC-272H; first compound 0.253 µM) of 0.242. For the same compound, the relative viability (EPLC-272H; first compound 0.8 µM) was 0.22, the relative viability (EPLC-272H; first compound 2.53 µM) was 0.24 and the relative viability (EPLC-272H; first compound 8 µM) was 0.248. It also gave a relative viability (H3255; first compound 0.08 µM) of 0.878, a relative viability (H3255; first compound 0.253 µM) of 0.996 and a relative viability (H3255; first compound 0.8 µM) of 0.758. For the same compound, the relative viability (H3255; first compound 2.53 µM) was 0.882, the relative viability (H3255; first compound 8 µM) was 0.901 and the relative viability (HCC-44; first compound 0.08 µM) was 1.06. For the same compound, the relative viability (HCC-44; first compound 0.253 µM) was 1.04, the relative viability (HCC-44; first compound 0.8 µM) was 0.937 and the relative viability (HCC-44; first compound 2.53 µM) was 0.991. For the same compound, the relative viability (HCC-44; first compound 8 µM) was 0.986, the relative viability (HCC-827; first compound 0.08 µM) was 0.199 and the relative viability (HCC-827; first compound 0.253 µM) was 0.196. For the same compound, the relative viability (HCC-827; first compound 0.8 µM) was 0.165, the relative viability (HCC-827; first compound 2.53 µM) was 0.122 and the relative viability (HCC-827; first compound 8 µM) was 0.188. The relative viability (LCLC-103H; first compound 0.08 µM) was 0.717, the relative viability (LCLC-103H; first compound 0.253 µM) was 0.825 and the relative viability (LCLC-103H; first compound 0.8 µM) was 0.866. It also gave a relative viability (LCLC-103H; first compound 2.53 µM) of 0.784, a relative viability (LCLC-103H; first compound 8 µM) of 0.822 and a relative viability (LU99A; first compound 0.08 µM) of 0.28. The relative viability (LU99A; first compound 0.253 µM) was 0.349, the relative viability (LU99A; first compound 0.8 µM) was 0.38 and the relative viability (LU99A; first compound 2.53 µM) was 0.309. It also gave a relative viability (LU99A; first compound 8 µM) of 0.456, a relative viability (NCI-H1395; first compound 0.08 µM) of 0.384 and a relative viability (NCI-H1395; first compound 0.253 µM) of 0.395. For the same compound, the relative viability (NCI-H1395; first compound 0.8 µM) was 0.378, the relative viability (NCI-H1395; first compound 2.53 µM) was 0.373 and the relative viability (NCI-H1395; first compound 8 µM) was 0.418. For the same compound, the relative viability (NCI-H1651; first compound 0.08 µM) was 0.452, the relative viability (NCI-H1651; first compound 0.253 µM) was 0.538 and the relative viability (NCI-H1651; first compound 0.8 µM) was 0.44. It also gave a relative viability (NCI-H1651; first compound 2.53 µM) of 0.389, a relative viability (NCI-H1651; first compound 8 µM) of 0.425 and a relative viability (NCI-H1793; first compound 0.08 µM) of 0.299. The relative viability (NCI-H1793; first compound 0.253 µM) was 0.48, the relative viability (NCI-H1793; first compound 0.8 µM) was 0.458 and the relative viability (NCI-H1793; first compound 2.53 µM) was 0.182. The relative viability (NCI-H1793; first compound 8 µM) was 0.377, the relative viability (NCI-H1944; first compound 0.08 µM) was 0.54 and the relative viability (NCI-H1944; first compound 0.253 µM) was 0.456. It also gave a relative viability (NCI-H1944; first compound 0.8 µM) of 0.48, a relative viability (NCI-H1944; first compound 2.53 µM) of 0.55 and a relative viability (NCI-H1944; first compound 8 µM) of 0.51. For the same compound, the relative viability (NCI-H2085; first compound 0.08 µM) was 1.01, the relative viability (NCI-H2085; first compound 0.253 µM) was 1.17 and the relative viability (NCI-H2085; first compound 0.8 µM) was 1.02. The relative viability (NCI-H2085; first compound 2.53 µM) was 0.836, the relative viability (NCI-H2085; first compound 8 µM) was 0.614 and the relative viability (NCI-H2087; first compound 0.08 µM) was 1.25. The relative viability (NCI-H2087; first compound 0.253 µM) was 1.46, the relative viability (NCI-H2087; first compound 0.8 µM) was 1.07 and the relative viability (NCI-H2087; first compound 2.53 µM) was 1.31. It also gave a relative viability (NCI-H2087; first compound 8 µM) of 1.25, a relative viability (NCI-H2405; first compound 0.08 µM) of 0.691 and a relative viability (NCI-H2405; first compound 0.253 µM) of 0.808. It also gave a relative viability (NCI-H2405; first compound 0.8 µM) of 0.731, a relative viability (NCI-H2405; first compound 2.53 µM) of 0.64 and a relative viability (NCI-H2405; first compound 8 µM) of 0.661. The relative viability (NCI-H650; first compound 0.08 µM) was 0.886, the relative viability (NCI-H650; first compound 0.253 µM) was 1.09 and the relative viability (NCI-H650; first compound 0.8 µM) was 1.03. The relative viability (NCI-H650; first compound 2.53 µM) was 0.668, the relative viability (NCI-H650; first compound 8 µM) was 1.01 and the relative viability (NCI-H838; first compound 0.08 µM) was 0.933. The relative viability (NCI-H838; first compound 0.253 µM) was 1.09, the relative viability (NCI-H838; first compound 0.8 µM) was 0.898 and the relative viability (NCI-H838; first compound 2.53 µM) was 0.941. For the same compound, the relative viability (NCI-H838; first compound 8 µM) was 0.98.
